Measured values reported in patent US11813262B2, “Compositions and methods to increase muscular strength” (priority 2017, dated 2023).

Key:
[1] = test system: 3D engineered skeletal muscle tissue from C2Cl2 myoblasts; test: Contractility of 3D engineered optogenetic skeletal muscle tissue (displacement of compliant cantilever); type: cell-based, mouse; settings: for effect on muscle contraction of 3D muscle: other actin disrupters
Description: An in vitro optogenetic skeletal muscle micro-tissue as a model system (e.g., engineered skeletal muscle) such as the one shown in FIG. 1A-1E was used. Briefly, a sacrificial molding technique was used to form the muscle tissue on the cantilevers. A steel rod was used to mold a cylindrical hole in solidified gelatin. The steel rod was then removed and myoblasts in an extracellular matrix material was inserted in its place. The myoblasts were then differentiated in place to form a differentiated muscle tissue. With this system, a range of actin inhibitors were tested (e.g., Cytochalasin D (Zygosporin A), Latrunculin A, SMIFH2, CK666 and Jasplakinode) including ones that bind to the barbed end of F-actin, ones that sequester G-actin monomers and inhibitors of formins, roughly a 100% increase in muscle strength was observed (FIGS. 2A-2B and FIGS. 3A-3B) and a 300% increase in external work performed was observed, within 2 hours of F-actin disruption. Additionally, disruption of the dynamic F-actin cytoskeleton using small molecule actin dynamics inhibitors led to a persistent 2-fold improvement in force (e.g., muscle performance or work) compared to exercising (FIG. 4A-4E). Actin disruption improved mouse muscle explant force, a model system that is very close to human muscle (FIG. 5A-5C).
(§1) Fabrication of a 3D engineered skeletal muscle tissue by differentiating C2Cl2 myoblasts mixed in a fibrin/matrigel extracellular matrix cast in to a muscle-like cylindrical shape using a sacrificial molding technique. The muscle tissue is anchored to a stiff cantilever and a more compliant cantilever. Optogenetic stimulation of the muscle tissue lead to muscle contraction which was quantified through measurable displacements of the compliant cantilever. ZygoA treatment of the 3D muscle tissues lead to a significant improvement in contraction relative to DMSO treated controls, reaching ˜2-fold increase in 2 hours.

[2] = test system: differentiated C2Cl2 myotubes; test: Active contraction of differentiated optogenetic C2Cl2 myotubes (Index of Movement); type: cell-based, mouse
Description: as §1

F-actin [3] = test: Phalloidin stain of F-actin in mouse EDL muscle explants; settings: 3 uM, 2 hours of treatment, vs DMSO
F-actin [4] = test: Fluorescence recovery after photobleaching of GFP-tagged G-actin in C2Cl2 myotubes; type: cell-based, mouse
Description: The fluorescence recovery in differentiated myotubes was affected by 3 different events: diffusion, dynamic F-actin turnover and stable F-actin turnover. DMSO treated tissues recovered faster than ZygoA treated tissues. […] These myotubes were excluded from the computation. Fluorescence recovery at different timescales (seconds, minutes, tens of minutes) reflected different molecular processes (diffusion of monomer, dynamic F-actin turnover, stable F-actin turnover). […] Changes in dynamic and stable F-actin fractions were statistically significant (FIG. 11D-11E).

[5] = test system: mouse hindlimb extensor digitorum longus (EDL) muscle explant; test: Contractility of mouse hindlimb EDL muscle explant on cantilevers under electrical stimulation
Description: The hindlimb extensor digitorum longus (EDL) muscle of a euthanized 2-3 month old male mouse was dissected. The EDL muscle was anchored between two kapton cantilevers using a cyanoacrylate glue. One of the cantilevers was movable whose position could be adjusted to change the resting tension of the muscle. The cantilever was moved to the point where maximal force was produced and was held at this point for the rest of the experiment. (FIG. 7A-7B).
The two colored envelopes around the curves representing the mean are the 68% and 95% confidence interval envelopes (FIG. 7D). ZygoA treated tissues that responded the best, with an average of ˜2× transient increase in contraction after treatment, followed by decline (FIG. 7E). […] Modeling the decline associated with rigor mortis as an exponential decay estimated the “true” strength change after treatment. The muscle strength was compared of tissue after treatment extrapolated to time t=0 and represent this as a strength ratio relative to the actual strength at t=0. ZygoA treated tissues show a ˜2.5-fold increase in median strength ratio relative to DMSO treated controls.

F-actin [6] = test: Live confocal time-lapse microscopy of Sir-Actin stained myotubes; type: cell-based; settings: 0.3 uM
Procedure: However, some of the background non-sarcomeric F-actin was depolymerized as also quantified in (FIG. 10D). Myotubes with an immature sarcomeric structure were depolymerized ˜5 hours after ZygoA treatment (FIG. 10C). Poorly differentiated, myotubes without visible sarcomeric structures had rupturing F-actin cables and significant actin upon actin disruption with ZygoA. […] Sir-Actin intensity before and 12 hours after treatment along sarcomeric F-actin in mature myotubes (FIG. 10D-10E).

[7] = poorly differentiated myotubes without visible sarcomeric structures

## C/C1=C/C(=O)O[C@@H]2C[C@@H](CC[C@H](C)/C=C\C=C\CC1)O[C@@](O)([C@@H]1CSC(=O)N1)C2 [Latrunculin A]
[1]
  effect on muscle contraction of 3D muscle: improved muscle contraction

## O=C1NC(=S)N(c2cccc(Br)c2)C(=O)C1=Cc1ccco1 [SMIFH2, 1-(3-Bromophenyl)-5-(2-furylmethylene)-2-thioxo-hexahydropyrimidine-4,6-dione]
[1]
  effect on muscle contraction of 3D muscle: improved muscle contraction

## C/C1=C\[C@H](C)C[C@H](C)OC(=O)C[C@H](c2ccc(O)cc2)NC(=O)[C@@H](Cc2c(Br)[nH]c3ccccc23)N(C)C(=O)[C@H](C)NC(=O)[C@@H](C)C1 [jasplakinolide]
[1]
  active contractility after F-actin stabilization: gradual decrease in active contractility

## C=C1[C@@H](C)[C@H]2[C@H](Cc3ccccc3)NC(=O)[C@]23[C@H](OC(C)=O)/C=C/[C@@](C)(O)C(=O)[C@@H](C)C/C=C/[C@H]3[C@@H]1O [ZygoA, Zygosporin A]
[2]
  active contraction (Index of Movement, active contractile displacement): significant improvement in active contraction
F-actin [3]
  F-actin disruption in muscle explants (phalloidin stain): disrupted F-actin
[1]; 0.3 μM, long term (1 day)
  longer term effect on active contraction: no significant effect
[1]; 3 uM for 2 hours followed by washout, days after washout
  muscle contraction after pulsed treatment compared to DMSO treated controls: sustained improvement in muscle contraction
[1]; 3 μM, 2 hours of exposure
  short term increase in force (active contraction): 2.6 ×
[1]; 3 μM, longer term (1 day)
  decrease in contraction compared to the peak achieved 2 hours after exposure: ~50%
[1]; 3D muscle tissues, in 2 hours
  increase in contraction relative to DMSO treated controls: ~2 fold
[1]; washout of high dose 3 uM
  effect of washout on contraction: recovery of the force to the level of the peak
[1]; washout of low dose 0.3 uM
  effect of washout on contraction: slight decrease in contraction (not significant)
F-actin [4]; FRAP, vs DMSO
  actin turnover time: slowed the actin turnover time in a dose-dependent manner
F-actin [4]; higher dose 3 uM
  amount of stable F-actin: reduces the amount of stable F-actin
F-actin [4]; low dose 0.3 uM
  amount of dynamic F-actin: reduced the amount of dynamic F-actin
[5]; ZygoA treated tissues that responded the best, average, treatment at t=60 mins
  transient increase in contraction after treatment: ~2 ×
[5]; strength after treatment extrapolated to t=0 (exponential decay model of rigor mortis) relative to actual strength at t=0
  increase in median strength ratio relative to DMSO treated controls: ~2.5 fold
[5]; treatment at t=60 mins, before rigor mortis decline
  contractility changes of treated tissues vs DMSO: transient improvement
F-actin [6]
  time to depolymerization of myotubes with immature sarcomeric structure: ~5 h
F-actin [6]; 12 hours after treatment, mature sarcomeric structure
  sarcomeric F-actin structure in mature myotubes after treatment: still displayed the periodic sarcomeric structure
F-actin [6]; [7]
  average F-actin filament length: decrease in the average F-actin filament length
  number of F-actin filaments: increase in number of F-actin filaments
